This note sets out measurements from US6383490B1, “Anti-cocaine vaccine” (The Scripps Research Institute, priority 1995, dated 2002).

Data set [1] concerns cocaine-binding immunoglobulins. In words: Competitive binding studies of the immune response (cocaine-binding immunoglobulins). The source says:
Consequently, inhibition of cocaine-binding immunoglobulins would not be expected in vivo from these metabolites.

Data set [2] can be described thus: Plasma cocaine levels by HPLC. It is filed as in vivo, rat. The conditions noted are these: 15 mg/kg i.p. An excerpt:
Analysis of serum immunoglobulin dissociation kinetics, antigen-binding capacity and the effect of antigen dilution (P. Minden, et al., in Handbook of Experimental Immunology. Weir, D. M., Ed., (Davis Co., Philadelphia, 1967), chap. 13, pp. 463-492; M. W. Steward et al., Antibody Affinity: Thermodynamic Aspects and Biological Significance, (CRC Press, Boca Raton, Fla., 1983); H. N. Eisen, in Methods in Medical Research. Eisen, H. N., Ed., (Yearbook Medical Publishers, Chicago, 1964), pp. 106-114; J. H. Hill, et al. Clin. Exp. Immunol. (1973): vol. 15, p 213-224.) were consistent with an in vivo antibody excess having a micromolar average binding constant. […] To complement these experiments, plasma cocaine levels were determined by HPLC according to a modified method of Benuck (M. Benuck, et al., J. Pharmacol. Exp. Ther.(1987): vol. 243, p 144-149) following a 15 mg/kg i.p. injection in a separate group of animals.

Turning to `CN1[C@H]2CC[C@@H]1[C@@H](C(=O)O)[C@@H](OC(=O)c1ccccc1)C2` [benzoylecgonine], the “discrimination for cocaine versus competitor” value in data set [1] (immune response to hapten 4 conjugate) is “greater than 900 fold”.

As usually defined, the half-life is how long it takes for the measured level to halve. Regarding `COC(=O)[C@H]1[C@@H](OC(=O)c2ccccc2)C[C@@H]2CC[C@H]1N2C` [cocaine, (−)-cocaine], in data set [2], the peak plasma concentration was 5.56 ± 0.31 µM and the “time of peak plasma concentration” value came to 5 min. In data set [2] (Wistar, rat, plasma, ip), this compound yielded a half-life of 25 min.

On to `COC(=O)[C@@H]1[C@H]2CC[C@@H](C[C@@H]1O)N2C` [ecgonine methyl ester], for which the “inhibition of cocaine-binding by competitor” value in data set [1] is “no detectable inhibition”.
